Ends that are not written are not given here.
Legend:
[1] = system: Human SARS-CoV-2 Spike (trimer); assay: Immunization of mice, anti-spike IgG ELISA; assay type: in vivo; conditions: Day 41 vs Day -1, BALB/c mice
HLA-A201 = HLA-A201 (Homo sapiens, UniProt P04439, D140Y/D185E/D98H/E176V/E277Q/G131W/G231S/I119V/I121R/I166T/I218V/N151K/N90K/P208A/P217A/Q86G/Q94H/R138H/R169H); assay: MHC-peptide binding assay (MHC class I refolding assay, easYmer)
Method: Different concentrations of peptides were incubated with β2-microglobulin light chain subunit and biotin-labeled recombinant HLA-A201 to form peptide-HLA complexes. The peptide-HLA complexes were then captured by streptavidin-coated beads and detected by anti-human β2-microglobulin antibody on flow cytometry. Each data point represents the mean fluorescence intensity corresponding to the number of the formed peptide-HLA complex, and the error bars represent standard deviation (n=2).
Each bar represents the mean fluorescence intensity corresponding to the number of the formed peptide-HLA complex, and the error bars represent standard deviation (n=2).
MHC-peptide binding assay. […] MHC class I refolding assay (easYmer, immunAware Aps, Copenhagen, Denmark) was preformed according to manufacturer's instruction. […] The biotin-labeled peptide-HLA complex was then captured by streptavidin-coated beads and detected by PE-conjugated anti-human β2-microglobulin on flow cytometry. […] No peptide was used in the negative control.

[2] = Immunization of mice, total IgG ELISA; assay type: in vivo, BALB/c mice; conditions: for total IgG antibodies: BALB/c mice, ***p<0.001
Method: Immunization of mice. To determine the immunogenicity of the antigen peptides of the present invention, Peptide 1 (SEQ ID NO: 1) of the present invention were used as an example for mice model. Ten (10) female BALB/c mice (7-9 weeks old) supplied by Envigo (Indianapolis, Ind., USA) were intramuscularly injected with 3 shots of 45 μg Peptide 1 (SEQ ID NO: 1) at 2 weeks apart (on Days 0, 14, and 28). Serum was collected before the day of each immunization (on Days−1, 13, and 27). Terminal blood collection was performed on Day 41. Isolated serum was stored at −80° C. until serological analysis. Serum samples collected one day prior to the first injection (on Day−1, pre-dose group) and serum samples collected 2 weeks after the third injection (on Day 41, post-dose group) were used for anti-spike IgG ELISA assay.
Total IgG ELISA. IgG (Total) Mouse Uncoated ELISA kit (Cat. No. 88-50400, Thermo Fisher Scientific, MA, USA) was used for total IgG ELISA according to manufacturer's instruction. Briefly, Nunc™ MaxiSorp™ 9018 ELISA plate was coated with 100 μL/well of capture antibody in Coating Buffer and incubated overnight at 4° C. The plate was washed twice with 400 μL/well Wash Buffer. After the wells were blocked with 250 μL of Blocking Buffer and incubated at room temperature for 2 hours, the plate was washed twice. The standards were serially diluted with Assay Buffer A at 2-fold to make the standard curve. Then, 100 μL/well of Assay Buffer A were added to the blank wells, and 90 μL/well of Assay Buffer A were added to the sample wells. Serum samples were diluted at least 10,000-fold in Assay Buffer A, and then 10 μL/well of the prediluted serum samples were added to the appropriate wells. Fifty (50) μL/well of diluted Detection Antibody were added to all wells. Then, the plate was covered and incubated at room temperature for 2 hours, and washed four times after the incubation. […] After that, 100 μL of Stop Solution were added to each well, and the plate was read at OD 450 nm with a microplate reader. […]

[3] = system: CD8^+ T cells in human PBMCs (HLA-A201^+); assay: MHC class I tetramer assay; assay type: cell-based; conditions: human PBMC (HLA-A201^+), 30 nM tetramer, 20 minutes; FIG. 3
Method: Human PBMCs were treated with MHC class I tetramers binding with Peptide 1 (SEQ ID NO: 1) or Peptide 12 (SEQ ID NO: 12) for 20 minutes, co-stained with anti-CD8 antibodies, and then analyzed with a flow cytometer. Results are presented as mean with error bars representing standard error (n=3). *p<0.05.
MHC class I tetramer assay. […] Then, 50 µL of the obtained folded monomer were mixed with the equivalent of 2.1 μL of a 0.2 mg/mL streptavidin-fluorophore and incubated in the dark at 4° C. for at least 1 hour to tetramerized the monomer. The tetramer was diluted to 30 nM in FACS buffer (PBS with 1% v/v BSA and 0.1% v/v NaN3) for staining of human T cells.
Next, around 1-2×10^5 human peripheral blood mononuclear cells (PBMCs, HLA-A201^+) ([…] Technologies Inc, Vancouver, British Columbia, Canada) in FACS buffer were seeded onto a 96-well microplate. The cells were centrifuged at 700×g for 3 minutes, and the supernatant was removed. The cells were resuspended with 40 μL of the diluted tetramer and incubated in the dark at room temperature (RT) for 20 minutes. The cells were washed once in cold FACS buffer and centrifuged at 700×g for 3 minutes. […] The cells were washed twice in cold FACS buffer, resuspended in FACS buffer, and analyzed in a flow cytometer (BD LSRFortessa™X20, Franklin Lakes, N.J., U.S.).

[4] = system: CD4^+ T cells in human PBMCs (HLA-A201^+); assay: Intracellular cytokine staining and multiparameter flow cytometry; assay type: cell-based; conditions: Day 12
Method: Human PBMCs were treated with Peptide 1 (SEQ ID NO: 1) at the concentrations of 0.4, 2, 10, 50, 250 nM for 12 days and then subject to intracellular cytokine staining and multiparameter flow cytometry.
Human PBMCs were treated with Peptide 12 (SEQ ID NO: 12) at the concentrations of 0.4, 2, 10, 50, 250 nM for 12 days and then subject to intracellular cytokine staining and multiparameter flow cytometry.
Intracellular cytokine staining and multiparameter flow cytometry. Around 1-2×10^5 human PBMCs (HLA-A201^+) ([…] Technologies Inc, Vancouver, British Columbia, Canada) were seeded onto 96-well microplate in X-VIVO 15 medium. […] The culture medium was refreshed every 5 days, and on the 12th day after treatment with the peptides, the cells were collected and stained with anti-CD4-PerCP-Cy5.5 conjugated, IFN-γ-FITC chrome conjugated, and IL4-PE chrome conjugated antibodies according to the manufacturer's instruction. After that, the cells were washed twice in cold FACS buffer, resuspended in FACS buffer, and analyzed in a flow cytometer ((BD LSRFortessa™X20, Franklin Lakes, N.J., U.S.).

Row | Sequence | anti-spike IgG antibodies ([1]; intramuscular, 45 μg, FIG. 5B, ***p<0.001) | anti-spike IgG antibodies ([1]; oral, 200 μg formulated with 1% (v/v) PLCL-PEG-PLCL, FIG. 7B, **p<0.01) | binding affinity for HLA-A201, times as high as that of CMVpp65495-503 (positive control) (HLA-A201; 8.9 nM peptide, FIG. 1, mean fluorescence intensity of peptide-HLA complex) | binding affinity for HLA-A201 compared with CMVpp65495-503 (positive control) (HLA-A201; concentration of 3 nM and 8.9 nM, FIG. 1) | total IgG antibodies ([2]; intramuscular, 45 μg, Days 0, 14, 28, FIG. 5A) | total IgG, course over administrations ([2]; intramuscular, 45 μg, sera on Days -1, 13, 27, 41, FIG. 5A) | total IgG antibodies ([2]; oral, 200 μg formulated with 1% (v/v) PLCL-PEG-PLCL, Day 41 vs Day -1, FIG. 7A) | antigen specific cytotoxic T cells (CTLs) detected by MHC class I tetramer staining [3] | IL-4 secretion by T helper cells (CD4^+ cells) ([4]; 50 nM peptide) | IFN-γ secretion by T helper cells (CD4^+ cells) ([4]; 250 nM peptide)
1 | KLNSGDSKV [Peptide 1] | induced anti-spike IgG antibodies | induced anti-spike IgG antibodies | 1.8 times | higher binding affinity for HLA-A201 than CMVpp65495-503 | induced total IgG antibodies | reaches to the plateau after second administration | induced total IgG antibodies | can be detected | higher level | higher level
2 | KLNSGLSKV [Peptide 12] |  |  |  |  |  |  |  | can be detected |  | 
